Results on four compounds are retold here after ChEMBL document CHEMBL4673230, “Total Synthesis of Natural Lembehyne C and Investigation of Its Cytotoxic Properties” (J Nat Prod, 2020).

Test [1] deals with Jurkat. As to the kind of experiment: Induction of apoptosis in human Jurkat cells assessed as early apoptotic cells at 200 nM after 24 hrs by Annexin V/7-AAD staining.based flow cytometric analysis relative to control. The format is functional. (In general: Flow cytometry measures light scatter and fluorescence of single cells or particles in a stream.)
Test [2] deals with Jurkat. As to the kind of experiment: Induction of cell cycle arrest in human Jurkat cells assessed as accumulation at sub-G1 phase at 2 uM after 24 hrs by Guava Cell Cycle reagent based flow cytometric analysis relative to control. The format is functional.
The subject of test [3] is Jurkat. As to the kind of experiment: Induction of apoptosis in human Jurkat cells assessed as late apoptotic cells after 24 hrs by Annexin V/7-AAD staining.based flow cytometric analysis. It counts as functional, cell-based. As to conditions: dose 50-400 nM.
Test [4] relates to Jurkat. Nature of the test: Induction of DNA damage in human Jurkat cells assessed as increase in H2Ax phosphorylation at 2 uM after 2 hrs by Alexa Fluor555 staining based flow cytometric analysis. It counts as functional, cell-based.
Test [5] has as its system Jurkat. As to the kind of experiment: Induction of ROS generation in human Jurkat cells assessed as apoptotic cells with clear mitochondrial damages at 200 nM after 4 hrs by MitoSox Red/annexin V-CF488A staining based flow cytometric analysis (reference value: 0.39%). The format is functional.
Test [6] concerns Jurkat. As to the kind of experiment: Induction of ROS generation in human Jurkat cells assessed as living undamaged cells at 200 nM after 2 hrs by MitoSox Red/annexin V-CF488A staining based flow cytometric analysis (reference value: 95.44%). The format is functional.
For test [7], the system named is Jurkat. Nature of the test: Induction of DNA damage in human Jurkat cells assessed as increase in H2Ax phosphorylation at 0.2 uM after 2 hrs by Alexa Fluor555 staining based flow cytometric analysis. The format is functional, cell-based.
For test [8], the system named is Jurkat. Nature of the test: Induction of ROS generation in human Jurkat cells assessed as mitochondria damaged cells at 200 nM after 4 hrs by MitoSox Red/annexin V-CF488A staining based flow cytometric analysis (reference value: 0%). The format is functional.
The test system of test [9] is Jurkat. Nature of the test: Induction of ROS generation in human Jurkat cells assessed as apoptotic cells at 200 nM after 4 hrs by MitoSox Red/annexin V-CF488A staining based flow cytometric analysis (reference value: 3.18%). It counts as functional.
The test system of test [10] is Jurkat. As to the kind of experiment: Induction of mitochondrial membrane potential loss in human Jurkat cells assessed as death cells at 200 nM after 4 hrs by MitoSense Red/7-AAD. flow cytometric analysis (reference value: 0.22%). It counts as functional.
In test [11] the test system is Jurkat. Nature of the test: Induction of mitochondrial membrane potential loss in human Jurkat cells assessed as stressed cells at 200 nM after 4 hrs by MitoSense Red/7-AAD. flow cytometric analysis (reference value: 1.12%). The format is functional.
In test [12] the test system is Jurkat. As to the kind of experiment: Induction of mitochondrial membrane potential loss in human Jurkat cells at 200 nM after 4 hrs by MitoSense Red/7-AAD. flow cytometric analysis. The format is functional, cell-based.
Test [13] deals with Jurkat. As to the kind of experiment: Induction of mitochondrial membrane potential loss in human Jurkat cells assessed as alife cells at 200 nM after 4 hrs by MitoSense Red/7-AAD. flow cytometric analysis (reference value: 98.47%). The format is functional.

Active and inactive are the calls of the source. The calls are words filed in the database; no cut-off is given here.

With `C#C[C@H](O)CCCCCCCCCCC/C=C\CC/C=C\CCCCCCCCCCCCCCCC`, the values for the Activity with Jurkat [1], with Jurkat [2] and with Jurkat [3] were 78.6%, 15.1% and “Dose-dependent effect”, respectively. Further, in the test on Jurkat [4], the result was inactive.

As for `COc1cc([C@@H]2c3cc4c(cc3[C@@H](O[C@@H]3O[C@@H]5CO[C@@H](C)O[C@H]5[C@H](O)[C@H]3O)[C@H]3COC(=O)[C@H]23)OCO4)cc(OC)c1O` [ETOPOSIDE], the Activity in the test with Jurkat [5] is reported as 13.1%; with Jurkat [6], 0.48%; in the test with Jurkat [8], 0%; with Jurkat [9] it was 86.42%. The result in the test with Jurkat [7] was Active.

Turning to `CC[C@@]1(O)C(=O)OCc2c1cc1n(c2=O)Cc2cc3ccccc3nc2-1` [CAMPTOTHECIN], the Activity in the test with Jurkat [5] is on record as 1.92%; in the test with Jurkat [6], 29.83%; with Jurkat [8] it was 0%; with Jurkat [9], 68.24%.

For the compound `CN[C@@H]1C[C@H]2O[C@@](C)([C@@H]1OC)n1c3ccccc3c3c4c(c5c6ccccc6n2c5c31)C(=O)NC4` [STAUROSPORINE], the Activity in the test on Jurkat [10] was found to be 15.87%; with Jurkat [11], 30.37%; in the test with Jurkat [13], 53.44%. The outcome in the test on Jurkat [12] was Active.
